Reference: ChEMBL document CHEMBL5537165, “Hepatitis C: The Story of a Long Journey through First, Second, and Third Generation NS3/4A Peptidomimetic Inhibitors. What Did We Learn?” (J Med Chem, 2024)

Legend:
[1] = biological target: T1, Non-structural protein 4b (Hepacivirus hominis, UniProt F5B4I0); test: Inhibition of full length Hepatitis C virus genotype 1b NS4B expressed in Escherichia coli
T1 sequence (F5B4I0 whole entry): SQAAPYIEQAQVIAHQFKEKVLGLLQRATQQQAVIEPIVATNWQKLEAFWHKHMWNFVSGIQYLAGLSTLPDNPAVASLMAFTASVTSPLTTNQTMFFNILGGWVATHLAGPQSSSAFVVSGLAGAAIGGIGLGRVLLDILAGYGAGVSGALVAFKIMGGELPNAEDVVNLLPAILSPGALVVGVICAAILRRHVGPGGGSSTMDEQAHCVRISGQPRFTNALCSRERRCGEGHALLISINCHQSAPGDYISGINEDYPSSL

[2] = biological target: Replicase polyprotein 1ab (Severe acute respiratory syndrome coronavirus 2, UniProt P0DTD1); test: Inhibition of SARS-CoV-2 3CL protease by FRET assay
[3] = biological target: T1, Non-structural protein 4b; test: Binding affinity to Hepatitis C virus genotype 3a NS4B assessed as inhibition constant
[4] = biological target: T1, Non-structural protein 4b; test: Binding affinity to full length Hepatitis C virus genotype 1b NS4B expressed in Escherichia coli assessed as inhibition constant
[5] = Inhibition of Hepatitis C virus NS3 protease; parameters: species or system Hepacivirus hominis
SARS-CoV-2 = test: Antiviral activity against SARS-CoV-2 infected in human Huh-7 cells assessed as reduction in viral growth; type: functional, organism-based; settings: Severe acute respiratory syndrome coronavirus 2, Huh-7
[6] = biological target: T1, Non-structural protein 4b; test: Inhibition of Hepatitis C virus genotype 1a NS4B
[7] = Oral bioavailability in Beagle dog at 2 mg/kg; type: ADME, organism-based, Canis lupus familiaris; settings: in vivo
[8] = Half life in Sprague-Dawley rat at 5 mg/kg, po by LC-MS/MS analysis; type: ADME, organism-based; settings: in vivo
[9] = AUC in Sprague-Dawley rat at 2 mg/kg, po; type: ADME, organism-based; settings: in vivo
[10] = Half life in Beagle dog at 5 mg/kg, po by LC-MS/MS analysis; type: ADME, organism-based, Canis lupus familiaris; settings: in vivo
[11] = biological target: T1, Non-structural protein 4b; test: Inhibition of Hepatitis C virus genotype 3a NS4B
[12] = biological target: T1, Non-structural protein 4b; test: Inhibition of Hepatitis C virus genotype 1b NS4B
[13] = biological target: T1, Non-structural protein 4b; test: Binding affinity to Hepatitis C virus genotype 1b NS4B assessed as inhibition constant

Question: With `C=C[C@@H]1C[C@]1(NC(=O)[C@@H]1C[C@@H]2CN1C(=O)[C@H](C(C)(C)C)NC(=O)OCCC/C=C/c1ccc3ccnc(c3c1)O2)C(=O)NS(=O)(=O)C1CC1` as the molecule, how does the IC50 [1] read?
Answer: 210 nM

Question: Which IC50 [2] does the source give for `C=C[C@@H]1C[C@]1(NC(=O)[C@@H]1C[C@@H](Oc2cc(-c3csc(NC(C)C)n3)nc3cc(OC)ccc23)CN1C(=O)[C@@H](NC(=O)OC1CCCC1)C(C)(C)C)P(=O)(O)O` here?
Answer: 0.9 nM

Question: With `COc1ccc2c(O[C@@H]3C[C@H]4C(=O)N[C@]5(P(=O)(O)Cc6ccccc6)C[C@H]5CCCCCCC[C@H](NC(=O)OC5CCCC5)C(=O)N4C3)cc(-c3csc(NC(C)C)n3)nc2c1` as the molecule, how does the IC50 [2] read?
Answer: 6 nM

Question: Which results are given for `C=C[C@@H]1C[C@]1(NC(=O)[C@@H]1C[C@@H]2CN1C(=O)[C@H](C(C)(C)C)NC(=O)O[C@@H]1C[C@H]1CCCCCc1nc3ccc(OC)cc3cc1O2)C(=O)NS(=O)(=O)C1CC1`?
Answer: Ki [3]: 0.31 nM; IC50 [1]: 13 nM; Ki [4]: 0.02 nM

Question: Which IC50 [1] does the source give for `C=C[C@@H]1C[C@]1(NC(=O)[C@@H]1C[C@@H](Oc2cc(-c3ccccc3)nc3cc(OC)ccc23)CN1C(=O)[C@@H](NC(=O)OC1CCCC1)C(C)(C)C)C(=O)O` here?
Answer: 14 nM

Question: For `COc1ccc2c(O[C@@H]3C[C@H]4C(=O)N[C@]5(C(=O)O)C[C@H]5/C=C\CCCCC[C@H](NC(=O)OC5CCCC5)C(=O)N4C3)cc(-c3csc(NC(C)C)n3)nc2c1`, which IC50 [5] is on record?
Answer: 3000 nM

Question: What does the source list for `C=C[C@@H]1C[C@]1(NC(=O)[C@@H]1C[C@@H](Oc2ncc(OC)c3ccccc23)CN1C(=O)[C@@H](NC(=O)OC(C)(C)C)C(C)(C)C)C(=O)NS(=O)(=O)C1CC1`?
Answer: EC50 (SARS-CoV-2): 19 nM; IC50 [6]: 7 nM

Question: Which results are given for `C=C[C@@H]1C[C@]1(NC(=O)[C@@H]1C[C@@H](Oc2nccc3ccccc23)CN1C(=O)[C@@H](NC(=O)OC(C)(C)C)C(C)(C)C)C(=O)NS(=O)(=O)C1CC1`?
Answer: EC50 (SARS-CoV-2): 60 nM; IC50 [6]: 7 nM

Question: What does the source list for `Cc1cnc(C(=O)N[C@H]2CCCCC/C=C\[C@@H]3C[C@@]3(C(=O)NS(=O)(=O)C3CC3)NC(=O)[C@@H]3C[C@@H](Oc4nc5ccccc5c5ccccc45)CN3C2=O)cn1`?
Answer: bioavailability [7]: 41%; half-life [8]: 24 min; AUC [9]: 19 µM·h; half-life [10]: 72 min

Question: What does the source list for `C=C[C@@H]1C[C@]1(NC(=O)[C@@H]1C[C@]2(CCc3c(c(C)nc4ccccc34)O2)CN1C(=O)[C@@H](NC(=O)OC(C)(C)C)C(C)(C)C)C(=O)NS(=O)(=O)C1(C)CC1`?
Answer: IC50 [11]: 5.7 nM; IC50 [12]: 0.033 nM

Question: For `C=C[C@@H]1C[C@]1(NC(=O)[C@@H]1C[C@]23CCc4c(c(nc5ccc(OC)cc45)CCCCC[C@@H]4C[C@H]4OC(=O)N[C@@H](C4(C)CCCCC4)C(=O)N1C2)O3)C(=O)NS(=O)(=O)C1(C)CC1`, which IC50 [11] is on record?
Answer: 4.5 nM

Question: For `C=C[C@@H]1C[C@]1(NC(=O)[C@@H]1C[C@@H](Oc2cc(-c3ccccc3)nc3cc(OC)ccc23)CN1C(=O)[C@@H](NC(=O)OC(C)(C)C)C(C)(C)C)C(=O)NS(=O)(=O)C1CC1`, which EC50 (SARS-CoV-2) is on record?
Answer: 4 nM

Question: What about the IC50 [6] of the same molecule?
Answer: 1 nM

Question: Which results are given for `CC[C@@H]1C[C@]1(NC(=O)[C@@H]1C[C@@H]2CN1C(=O)[C@H](C(C)(C)C)NC(=O)OCC(C)(C)CCCCc1cccc3c1CN(C3)C(=O)O2)C(=O)NS(=O)(=O)C1CC1`?
Answer: Ki [13]: 0.05 nM; IC50 [12]: 3 nM

Question: For `COc1ccc2c(O[C@@H]3C[C@H]4C(=O)N[C@]5(C(=O)O)C[C@H]5/C=C/CCCCC[C@H](NC(=O)OC(C)(C)C)C(=O)N4C3)cc(-c3ccccc3)nc2c1`, which IC50 [5] is on record?
Answer: 11 nM

Question: What does the source list for `Cc1nc2ccccc2c2c1O[C@]1(CC2)C[C@H]2C(=O)N[C@]3(C(=O)NS(=O)(=O)C4(C)CC4)C[C@H]3/C=C/CCCCC[C@H](NC(=O)OC(C)(C)C)C(=O)N2C1`?
Answer: IC50 [11]: 0.7 nM; IC50 [12]: 0.013 nM

Question: With `C=C[C@H]1C[C@]1(NC(=O)[C@@H]1C[C@@H]2CN1C(=O)[C@H](C(C)(C)C)NC(=O)OCCC/C=C/c1cccc3c1CN(C3)C(=O)O2)C(=O)NS(=O)(=O)C1CC1` as the molecule, how does the IC50 [1] read?
Answer: 7 nM

Question: What about the Ki [4] of the same molecule?
Answer: 0.05 nM
